Laboratory results: paper PMC6009968, “Through scaffold modification to 3,5-diaryl-4,5-dihydroisoxazoles: new potent and selective inhibitors of monoamine oxidase B” (Journal of Enzyme Inhibition and Medicinal Chemistry, 2017)
Where two headings read alike, the source gives them in different places. Marks after values point to notes of the source that are not given here.

Experiments:
hMAO-A = biological target: T1, hMAO-A (Homo sapiens, UniProt P21397); assay: Inhibition of human recombinant MAO A (Amplex Red assay)
T1 sequence (P21397 1-527): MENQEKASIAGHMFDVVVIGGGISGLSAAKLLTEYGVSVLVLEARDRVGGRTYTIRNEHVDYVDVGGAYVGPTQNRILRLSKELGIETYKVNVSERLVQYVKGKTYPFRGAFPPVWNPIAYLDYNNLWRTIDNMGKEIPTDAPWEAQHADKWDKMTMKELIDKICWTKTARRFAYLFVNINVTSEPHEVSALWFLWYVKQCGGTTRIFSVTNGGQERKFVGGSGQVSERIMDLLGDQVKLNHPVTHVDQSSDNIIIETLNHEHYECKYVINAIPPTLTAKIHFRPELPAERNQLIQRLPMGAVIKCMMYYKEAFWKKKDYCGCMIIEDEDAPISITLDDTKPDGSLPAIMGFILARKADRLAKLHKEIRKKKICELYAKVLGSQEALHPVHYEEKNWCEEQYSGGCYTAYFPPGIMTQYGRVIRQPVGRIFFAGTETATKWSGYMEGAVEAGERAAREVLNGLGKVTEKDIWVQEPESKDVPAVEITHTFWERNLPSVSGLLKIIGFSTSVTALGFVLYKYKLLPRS

hMAO-B = biological target: T2, hMAO-B (Homo sapiens, UniProt P27338); assay: Inhibition of human recombinant MAO B (Amplex Red assay); conditions: for Ratio: assumes the inactive isoform IC50 is the highest concentration tested (100 μM); for Ratio, selectivity ratios [IC50(MAO-A)]/[IC50(MAO-B)]: bounds assume IC50 against MAO-A is the highest concentration tested (100 μM)
T2 sequence (P27338 1-520): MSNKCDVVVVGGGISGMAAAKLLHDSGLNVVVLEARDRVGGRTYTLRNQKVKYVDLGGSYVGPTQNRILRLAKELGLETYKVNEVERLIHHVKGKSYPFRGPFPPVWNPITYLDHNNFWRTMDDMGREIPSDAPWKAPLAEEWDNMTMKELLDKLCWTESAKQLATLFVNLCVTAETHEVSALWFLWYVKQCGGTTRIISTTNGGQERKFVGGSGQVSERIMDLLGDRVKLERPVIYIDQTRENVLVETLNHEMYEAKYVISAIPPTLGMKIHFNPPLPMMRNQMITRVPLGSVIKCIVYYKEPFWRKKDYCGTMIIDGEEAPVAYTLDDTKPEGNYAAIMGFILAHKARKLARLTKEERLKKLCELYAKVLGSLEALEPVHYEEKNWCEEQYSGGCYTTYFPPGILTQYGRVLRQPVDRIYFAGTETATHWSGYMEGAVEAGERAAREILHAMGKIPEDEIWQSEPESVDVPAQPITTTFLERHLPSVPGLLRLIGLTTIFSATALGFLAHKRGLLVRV

[1] = read-out: MAO-A (IC50), Table 4, single enantiomers
[2] = read-out: MAO-B (IC50), Table 4, single enantiomers, mean ± SEM from five experiments
[3] = read-out: MAO-A (IC50), Table 3, highest concentration tested
[4] = read-out: MAO-B (IC50), Table 3, mean ± SEM from five experiments

SMILES | IC50 (hMAO-A; [1]) | Ratio (hMAO-B; Table 4, single enantiomers) | Ratio, selectivity ratios [IC50(MAO-A)]/[IC50(MAO-B)] (hMAO-B; Table 3) | other results
COc1ccc([C@@H]2CC(c3ccc(C)cc3)=NO2)cc1 [S-(+) EMAC II m] | > 100000 nM | 342.6 | – | IC50 (hMAO-B; [2]): 292 ± 13.4 nM
Cc1ccc(C2=NOC(c3ccc(Cl)c(Cl)c3)C2)cc1 (racemic) [EMAC II l] | – | – | >8354^d | IC50 (hMAO-A; [3]): > 100000 nM; IC50 (hMAO-B; [4]): 12 ± 0.37 nM
Cc1ccc(C2=NOC(c3ccc(F)cc3)C2)cc1 (racemic) [EMAC II k] | – | – | >312^d | IC50 (hMAO-A; [3]): > 100000 nM; IC50 (hMAO-B; [4]): 320 ± 13.6 nM
Cc1ccc(C2=NO[C@@H](c3ccc(C)cc3)C2)cc1 [R-(−) EMAC II j] | > 100000 nM | 39 216^b | – | IC50 (hMAO-B; [2]): 2.55 ± 0.11 nM
Cc1ccc(C2=NOC(c3ccc(C)cc3)C2)cc1 (racemic) [EMAC II j] | – | – | >2436^d | IC50 (hMAO-A; [3]): > 100000 nM; IC50 (hMAO-B; [4]): 41 ± 1.52 nM
Cc1ccc(C2=NO[C@H](c3ccc(Cl)c(Cl)c3)C2)cc1 [S-(+) EMAC II l] | – | 9124 | – | IC50 (hMAO-A): > 100000 nM
Cc1ccc(C2=NO[C@@H](c3ccc(Cl)c(Cl)c3)C2)cc1 [R-(−) EMAC II l] | – | 52 910^b | – | IC50 (hMAO-A): > 100000 nM; selectivity towards MAO B, increase of the enantiomer versus the racemic mixture (hMAO-B): increased by more than six folds
COc1ccc(C2CC(c3ccc(C)cc3)=NO2)cc1 (racemic) [EMAC II m] | – | – | >222^d | IC50 (hMAO-A; [3]): > 100000 nM; IC50 (hMAO-B; [4]): 450 ± 18 nM
Cc1ccc(C2=NO[C@@H](c3ccc(Cl)cc3)C2)cc1 [R-(−) EMAC II i] | – | 6549^b | – | IC50 (hMAO-A): > 100000 nM; IC50 (hMAO-B): 15.3 ± 0.95 nM
Cc1ccc(C2=NO[C@H](c3ccc(C)cc3)C2)cc1 [S-(+) EMAC II j] | > 100000 nM | 3188^b | – | –
Cc1ccc(C2=NO[C@@H](c3ccc(F)cc3)C2)cc1 [R-(−) EMAC II k] | > 100000 nM | 333.5^b | – | IC50 (hMAO-B; [2]): 300 ± 12 nM
Cc1ccc(C2=NO[C@H](c3ccc(Cl)cc3)C2)cc1 [S-(+) EMAC II i] | > 100000 nM | – | – | IC50 (hMAO-B; read-out: MAO-B (IC50), Table 4, single enantiomers): > 100000 nM
Cc1ccc(C2=NOC(c3ccc(Cl)cc3)C2)cc1 (centres unmarked) [EMAC II i] | – | – | >961^d | IC50 (hMAO-A): > 100000 nM; IC50 (hMAO-B): 104 ± 3.69 nM
Cc1ccc(C2=NO[C@H](c3ccc(F)cc3)C2)cc1 [S-(+) EMAC II k] | > 100000 nM | 2956^b | – | –
COc1ccc([C@H]2CC(c3ccc(C)cc3)=NO2)cc1 [R-(−) EMAC II m] | > 100000 nM | 792.6^b | – | IC50 (hMAO-B; [2]): 126 ± 8.44 nM
